Read-outs that look alike come from different tables or passages of the source.
Tests used:
Bacillus subtilis 168 = assay: Bacterial growth in microscale cultivation, B. subtilis; format: cell-based; settings: relative to control
How it was run: (§1)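 In a BioLector microscale system shaken at 1200 rpm, growth was tracked by backscatter at 620 nm, and final signal, growth rate (h⁻¹) and lag-phase length were scored against DMSO-only controls. Starting OD600 was 0.5, or 0.25 for B. subtilis. Inhibitors came from DMSO stocks, with trans-chalcone capped at 400 μM and 2'-hydroxychalcone at 100 μM.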

F. trinervia PEPC = biological target: T1, F. trinervia PEPC (Flaveria trinervia, UniProt P30694); assay: biochemical; format: biochemical; settings: C4 PEPC
T1 construct: the full-length ppcA gene of PEPC from F. trinervia (EMBL-Bank X61304); made in house; host or cells: Escherichia coli BL21(DE3)
T1 sequence (P30694 1-966): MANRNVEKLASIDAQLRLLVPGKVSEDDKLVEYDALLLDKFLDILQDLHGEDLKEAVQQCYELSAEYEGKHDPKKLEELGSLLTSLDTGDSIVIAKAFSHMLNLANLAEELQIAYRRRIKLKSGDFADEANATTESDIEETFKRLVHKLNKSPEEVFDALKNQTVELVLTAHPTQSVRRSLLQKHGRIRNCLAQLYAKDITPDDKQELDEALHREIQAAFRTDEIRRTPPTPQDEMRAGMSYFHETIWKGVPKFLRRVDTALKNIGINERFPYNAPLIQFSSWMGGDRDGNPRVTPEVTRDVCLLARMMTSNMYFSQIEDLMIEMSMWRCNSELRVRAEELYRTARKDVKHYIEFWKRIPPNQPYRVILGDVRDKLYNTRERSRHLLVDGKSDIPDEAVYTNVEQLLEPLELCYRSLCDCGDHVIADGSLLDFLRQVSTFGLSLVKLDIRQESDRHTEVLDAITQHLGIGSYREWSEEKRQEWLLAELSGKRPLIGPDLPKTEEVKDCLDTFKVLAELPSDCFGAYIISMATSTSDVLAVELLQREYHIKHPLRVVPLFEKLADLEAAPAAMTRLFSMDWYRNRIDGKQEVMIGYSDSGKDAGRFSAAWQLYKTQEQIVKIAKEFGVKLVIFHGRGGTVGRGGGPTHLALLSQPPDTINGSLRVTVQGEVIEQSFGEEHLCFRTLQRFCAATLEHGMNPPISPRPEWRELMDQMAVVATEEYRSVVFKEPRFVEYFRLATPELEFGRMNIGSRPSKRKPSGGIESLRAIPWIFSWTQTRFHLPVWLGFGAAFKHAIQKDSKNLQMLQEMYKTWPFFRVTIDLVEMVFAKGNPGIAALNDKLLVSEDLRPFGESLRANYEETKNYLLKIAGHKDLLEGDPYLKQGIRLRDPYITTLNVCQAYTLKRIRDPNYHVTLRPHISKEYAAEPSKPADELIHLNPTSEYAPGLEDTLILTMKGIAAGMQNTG

[1] = test system: Corynebacterium glutamicum ATCC13032; assay: Bacterial growth in microscale cultivation, C. glutamicum; format: cell-based; settings: relative to control; for activity at 0.1 µM / activity at 1 µM / activity at 10 µM: Corynebacterium glutamicum
How it was run: as §1

[2] = test system: Escherichia coli K-12 MG1655; assay: Bacterial growth in microscale cultivation, E. coli; format: cell-based; settings: relative to control; for activity at 0.1 µM / activity at 1 µM / activity at 10 µM: Escherichia coli
How it was run: as §1

## O=C(/C=C/c1ccc(O)c(O)c1)c1ccc(O)c(O)c1O [Compound 12, 2′,3′,4′,3,4-Pentahydroxy-chalcone]
Bacillus subtilis 168; Bacillus subtilis, 168, complex medium, 0.1 µM, read-out: Final Backscatter
  activity at 0.1 µM: 93.5%
Bacillus subtilis 168; Bacillus subtilis, 168, complex medium, 0.1 µM, read-out: Growth rate
  activity at 0.1 µM: 96.7%
Bacillus subtilis 168; Bacillus subtilis, 168, complex medium, 1 µM, read-out: Final Backscatter
  activity at 1 µM: 93.9%
Bacillus subtilis 168; Bacillus subtilis, 168, complex medium, 1 µM, read-out: Growth rate
  activity at 1 µM: 104%
Bacillus subtilis 168; Bacillus subtilis, 168, complex medium, 10 µM, read-out: Final Backscatter
  activity at 10 µM: 90.6%
Bacillus subtilis 168; Bacillus subtilis, 168, complex medium, 10 µM, read-out: Growth rate
  activity at 10 µM: 109%
Bacillus subtilis 168; Bacillus subtilis, 168, minimal medium, 0.1 µM, read-out: Final Backscatter
  activity at 0.1 µM: 102%
Bacillus subtilis 168; Bacillus subtilis, 168, minimal medium, 0.1 µM, read-out: Growth rate
  activity at 0.1 µM: 123%
Bacillus subtilis 168; Bacillus subtilis, 168, minimal medium, 1 µM, read-out: Final Backscatter
  activity at 1 µM: 98.6%
Bacillus subtilis 168; Bacillus subtilis, 168, minimal medium, 1 µM, read-out: Growth rate
  activity at 1 µM: 113%
Bacillus subtilis 168; Bacillus subtilis, 168, minimal medium, 10 µM, read-out: Final Backscatter
  activity at 10 µM: 104%
Bacillus subtilis 168; Bacillus subtilis, 168, minimal medium, 10 µM, read-out: Growth rate
  activity at 10 µM: 115%
Bacillus subtilis 168; complex medium, 0.1 µM
  Lag Phase: 110,6%
Bacillus subtilis 168; complex medium, 1 µM
  Lag Phase: 102,7%
Bacillus subtilis 168; complex medium, 10 µM
  Lag Phase: 94,7%
Bacillus subtilis 168; minimal medium, 0.1 µM
  Lag Phase: 98,2%
Bacillus subtilis 168; minimal medium, 1 µM
  Lag Phase: 100,6%
Bacillus subtilis 168; minimal medium, 10 µM
  Lag Phase: 100,0%
F. trinervia PEPC
  lower IC50 value in comparison to 8–11: ~ 5 fold
F. trinervia PEPC; IC50 F. trinervia PEPC
  IC50: 600 ± 100 nM
[1]; ATCC13032, complex medium, 0.1 µM, read-out: Final Backscatter
  activity at 0.1 µM: 97%
[1]; ATCC13032, complex medium, 0.1 µM, read-out: Growth rate
  activity at 0.1 µM: 108%
[1]; ATCC13032, complex medium, 1 µM, read-out: Final Backscatter
  activity at 1 µM: 93.8%
[1]; ATCC13032, complex medium, 1 µM, read-out: Growth rate
  activity at 1 µM: 132%
[1]; ATCC13032, complex medium, 10 µM, read-out: Final Backscatter
  activity at 10 µM: 89.6%
[1]; ATCC13032, complex medium, 10 µM, read-out: Growth rate
  activity at 10 µM: 144%
[1]; ATCC13032, minimal medium, 0.1 µM, read-out: Final Backscatter
  activity at 0.1 µM: 99.6%
[1]; ATCC13032, minimal medium, 0.1 µM, read-out: Growth rate
  activity at 0.1 µM: 102%
[1]; ATCC13032, minimal medium, 1 µM, read-out: Final Backscatter
  activity at 1 µM: 97.6%
[1]; ATCC13032, minimal medium, 1 µM, read-out: Growth rate
  activity at 1 µM: 102%
[1]; ATCC13032, minimal medium, 10 µM, read-out: Final Backscatter
  activity at 10 µM: 96.7%
[1]; ATCC13032, minimal medium, 10 µM, read-out: Growth rate
  activity at 10 µM: 97.9%
[1]; complex medium, 0.1 µM
  Lag Phase: 96,4%
[1]; complex medium, 1 µM
  Lag Phase: 84,1%
[1]; complex medium, 10 µM
  Lag Phase: 99,3%
[1]; minimal medium, 0.1 µM
  Lag Phase: 99,3%
[1]; minimal medium, 1 µM
  Lag Phase: 99,3%
[1]; minimal medium, 10 µM
  Lag Phase: 100,7%
[2]; MG1655, complex medium, 0.1 µM, read-out: Final Backscatter
  activity at 0.1 µM: 98.5%
[2]; MG1655, complex medium, 0.1 µM, read-out: Growth rate
  activity at 0.1 µM: 106%
[2]; MG1655, complex medium, 1 µM, read-out: Final Backscatter
  activity at 1 µM: 100%
[2]; MG1655, complex medium, 1 µM, read-out: Growth rate
  activity at 1 µM: 100%
[2]; MG1655, complex medium, 10 µM, read-out: Final Backscatter
  activity at 10 µM: 97.9%
[2]; MG1655, complex medium, 10 µM, read-out: Growth rate
  activity at 10 µM: 111%
[2]; MG1655, minimal medium, 0.1 µM, read-out: Final Backscatter
  activity at 0.1 µM: 99.7%
[2]; MG1655, minimal medium, 0.1 µM, read-out: Growth rate
  activity at 0.1 µM: 99.8%
[2]; MG1655, minimal medium, 1 µM, read-out: Final Backscatter
  activity at 1 µM: 98.5%
[2]; MG1655, minimal medium, 1 µM, read-out: Growth rate
  activity at 1 µM: 100%
[2]; MG1655, minimal medium, 10 µM, read-out: Final Backscatter
  activity at 10 µM: 101%
[2]; MG1655, minimal medium, 10 µM, read-out: Growth rate
  activity at 10 µM: 104%
[2]; complex medium, 0.1 µM
  Lag Phase: 108,5%
[2]; complex medium, 1 µM
  Lag Phase: 102,8%
[2]; complex medium, 10 µM
  Lag Phase: 111,4%
[2]; minimal medium, 0.1 µM
  Lag Phase: 99,0%
[2]; minimal medium, 1 µM
  Lag Phase: 102,0%
[2]; minimal medium, 10 µM
  Lag Phase: 95,1%

From article PMC4893628, “Chalcone-based Selective Inhibitors of a C4 Plant Key Enzyme as Novel Potential Herbicides” (Scientific Reports, 2016)
